Measurements as given in PubChem BioAssay (NCI).
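The compound was tested at five concentrations on cells cultured in 96-well plates, with a 48-hour exposure period. At the GI50, growth is halved. The concentration for full growth arrest is given as TGI.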

Assays:
Experiment in all cases: DTP human tumour cell line panel, 48 h
SF-268 CNS = test system: SF-268 CNS
SF-539 CNS = test system: SF-539 CNS
MDA-MB-435 = test system: MDA-MB-435
OVCAR-4 ovarian = test system: OVCAR-4 ovarian
SNB-19 CNS = test system: SNB-19 CNS
LOX IMVI melanoma = test system: LOX IMVI melanoma
HT29 colon = test system: HT29 colon
A498 renal = test system: A498 renal
HS 578T breast = test system: HS 578T breast
SF-295 CNS = test system: SF-295 CNS
DU-145 prostate = test system: DU-145 prostate
SN12C renal = test system: SN12C renal
U251 CNS = test system: U251 CNS
NCI-H460 lung = test system: NCI-H460 lung
TK-10 renal = test system: TK-10 renal
HCT-116 colon = test system: HCT-116 colon
MCF7 breast = test system: MCF7 breast
M14 melanoma = test system: M14 melanoma
K-562 leukemia = test system: K-562 leukemia
KM12 colon = test system: KM12 colon
OVCAR-3 ovarian = test system: OVCAR-3 ovarian
NCI-H226 lung = test system: NCI-H226 lung
UACC-62 melanoma = test system: UACC-62 melanoma
BT-549 breast = test system: BT-549 breast
ACHN renal = test system: ACHN renal
MALME-3M melanoma = test system: MALME-3M melanoma
UACC-257 melanoma = test system: UACC-257 melanoma
OVCAR-8 ovarian = test system: OVCAR-8 ovarian
CAKI-1 renal = test system: CAKI-1 renal
UO-31 renal = test system: UO-31 renal
NCI/ADR-RES ovarian = test system: NCI/ADR-RES ovarian
NCI-H522 lung = test system: NCI-H522 lung
EKVX NSCLC = test system: EKVX NSCLC
SW-620 colon = test system: SW-620 colon
RXF 393 renal = test system: RXF 393 renal
HCT-15 colon = test system: HCT-15 colon
MDA-MB-468 breast = test system: MDA-MB-468 breast
HOP-92 NSCLC = test system: HOP-92 NSCLC
SK-MEL-5 melanoma = test system: SK-MEL-5 melanoma
IGROV1 ovarian = test system: IGROV1 ovarian
786-0 renal = test system: 786-0 renal
HL-60(TB) leukemia = test system: HL-60(TB) leukemia
HOP-62 NSCLC = test system: HOP-62 NSCLC
NCI-H23 lung = test system: NCI-H23 lung
HCC-2998 colon = test system: HCC-2998 colon
MOLT-4 leukemia = test system: MOLT-4 leukemia
SK-MEL-28 melanoma = test system: SK-MEL-28 melanoma
CCRF-CEM leukemia = test system: CCRF-CEM leukemia
T-47D breast = test system: T-47D breast
SK-MEL-2 melanoma = test system: SK-MEL-2 melanoma
PC-3 prostate = test system: PC-3 prostate
MDA-MB-231 breast = test system: MDA-MB-231 breast
SR leukemia = test system: SR leukemia
SK-OV-3 ovarian = test system: SK-OV-3 ovarian
RPMI-8226 leukemia = test system: RPMI-8226 leukemia
OVCAR-5 ovarian = test system: OVCAR-5 ovarian
A549 NSCLC = test system: A549 NSCLC
SNB-75 CNS = test system: SNB-75 CNS
COLO 205 colon = test system: COLO 205 colon

SMILES: O=C1Nc2cc(-c3ccc(NS(=O)(=O)c4ccc([N+](=O)[O-])cc4)cc3)ccc2/C1=C/c1ccc[nH]1
- GI50 (SF-268 CNS): 16.4 µM
- TGI (SF-268 CNS): 80.4 µM
- GI50 (SF-539 CNS): 10.9 µM
- TGI (SF-539 CNS): 23.8 µM
- GI50 (MDA-MB-435): 16.1 µM
- TGI (MDA-MB-435): 42.8 µM
- GI50 (OVCAR-4 ovarian): 10.9 µM
- TGI (OVCAR-4 ovarian): 92.6 µM
- GI50 (SNB-19 CNS): 16.3 µM
- TGI (SNB-19 CNS): 56.6 µM
- GI50 (LOX IMVI melanoma): 13.7 µM
- TGI (LOX IMVI melanoma): 27.2 µM
- GI50 (HT29 colon): 14.8 µM
- TGI (HT29 colon): 34 µM
- GI50 (A498 renal): 18.4 µM
- TGI (A498 renal): 50.1 µM
- GI50 (HS 578T breast): 22.5 µM
- TGI (HS 578T breast): > 100 µM
- GI50 (SF-295 CNS): 11.4 µM
- TGI (SF-295 CNS): 41.3 µM
- GI50 (DU-145 prostate): 16 µM
- TGI (DU-145 prostate): 33.6 µM
- GI50 (SN12C renal): 14.6 µM
- TGI (SN12C renal): 34.8 µM
- GI50 (U251 CNS): 13.6 µM
- TGI (U251 CNS): 27.3 µM
- GI50 (NCI-H460 lung): 9.97 µM
- TGI (NCI-H460 lung): 32.2 µM
- GI50 (TK-10 renal): 16.4 µM
- TGI (TK-10 renal): 51.3 µM
- GI50 (HCT-116 colon): 13.2 µM
- TGI (HCT-116 colon): 29 µM
- GI50 (MCF7 breast): 1.74 µM
- TGI (MCF7 breast): 14.1 µM
- GI50 (M14 melanoma): 13.8 µM
- TGI (M14 melanoma): 43.1 µM
- GI50 (K-562 leukemia): 11.5 µM
- TGI (K-562 leukemia): > 100 µM
- GI50 (KM12 colon): 14.3 µM
- TGI (KM12 colon): 65.6 µM
- GI50 (OVCAR-3 ovarian): 13.9 µM
- TGI (OVCAR-3 ovarian): 32.4 µM
- GI50 (NCI-H226 lung): 12.2 µM
- TGI (NCI-H226 lung): 30.1 µM
- GI50 (UACC-62 melanoma): 10.3 µM
- TGI (UACC-62 melanoma): 29.7 µM
- GI50 (BT-549 breast): 10.5 µM
- TGI (BT-549 breast): 34.8 µM
- GI50 (ACHN renal): 12.1 µM
- TGI (ACHN renal): 26.9 µM
- GI50 (MALME-3M melanoma): 15.7 µM
- TGI (MALME-3M melanoma): 37.4 µM
- GI50 (UACC-257 melanoma): 11.1 µM
- TGI (UACC-257 melanoma): 44.3 µM
- GI50 (OVCAR-8 ovarian): 15.8 µM
- TGI (OVCAR-8 ovarian): 36.2 µM
- GI50 (CAKI-1 renal): 14.1 µM
- TGI (CAKI-1 renal): 36.6 µM
- GI50 (UO-31 renal): 6.74 µM
- TGI (UO-31 renal): > 100 µM
- GI50 (NCI/ADR-RES ovarian): 14.8 µM
- TGI (NCI/ADR-RES ovarian): 50.9 µM
- GI50 (NCI-H522 lung): 6.54 µM
- TGI (NCI-H522 lung): 28 µM
- GI50 (EKVX NSCLC): 2.28 µM
- TGI (EKVX NSCLC): 32.7 µM
- GI50 (SW-620 colon): 21 µM
- TGI (SW-620 colon): 51.2 µM
- GI50 (RXF 393 renal): 13.3 µM
- TGI (RXF 393 renal): 31.6 µM
- GI50 (HCT-15 colon): 11 µM
- TGI (HCT-15 colon): 33.8 µM
- GI50 (MDA-MB-468 breast): 0.778 µM
- TGI (MDA-MB-468 breast): 7.33 µM
- GI50 (HOP-92 NSCLC): 14.2 µM
- TGI (HOP-92 NSCLC): 39.6 µM
- GI50 (SK-MEL-5 melanoma): 19.9 µM
- TGI (SK-MEL-5 melanoma): 72.7 µM
- GI50 (IGROV1 ovarian): 19.4 µM
- TGI (IGROV1 ovarian): > 100 µM
- GI50 (786-0 renal): 14.4 µM
- TGI (786-0 renal): 31.1 µM
- GI50 (HL-60(TB) leukemia): 27.6 µM
- TGI (HL-60(TB) leukemia): > 100 µM
- GI50 (HOP-62 NSCLC): 18 µM
- TGI (HOP-62 NSCLC): 44.1 µM
- GI50 (NCI-H23 lung): 6.59 µM
- TGI (NCI-H23 lung): 26.8 µM
- GI50 (HCC-2998 colon): 18.6 µM
- TGI (HCC-2998 colon): > 100 µM
- GI50 (MOLT-4 leukemia): 8.77 µM
- TGI (MOLT-4 leukemia): > 100 µM
- GI50 (SK-MEL-28 melanoma): 12.3 µM
- TGI (SK-MEL-28 melanoma): 28 µM
- GI50 (CCRF-CEM leukemia): 13.6 µM
- TGI (CCRF-CEM leukemia): > 100 µM
- GI50 (T-47D breast): 4.77 µM
- TGI (T-47D breast): > 100 µM
- TGI (SK-MEL-2 melanoma): 71.4 µM
- GI50 (PC-3 prostate): 11.6 µM
- TGI (PC-3 prostate): 65.2 µM
- GI50 (MDA-MB-231 breast): 16.8 µM
- TGI (MDA-MB-231 breast): 38.6 µM
- GI50 (SR leukemia): 10.3 µM
- TGI (SR leukemia): > 100 µM
- GI50 (SK-OV-3 ovarian): 18.2 µM
- TGI (SK-OV-3 ovarian): 49.8 µM
- GI50 (RPMI-8226 leukemia): 6.15 µM
- TGI (RPMI-8226 leukemia): 73.6 µM
- GI50 (OVCAR-5 ovarian): 18.1 µM
- TGI (OVCAR-5 ovarian): 50.2 µM
- GI50 (A549 NSCLC): 12.1 µM
- TGI (A549 NSCLC): 28.9 µM
- GI50 (SNB-75 CNS): 20.4 µM
- TGI (SNB-75 CNS): > 100 µM
- GI50 (COLO 205 colon): 16 µM
- TGI (COLO 205 colon): 47.9 µM
